# Source: PubChem BioAssay AID1963831 (Molecular Pharmacology Branch, DTP, NCI, 2024)
# Where “and” joins values, the source holds several entries; their conditions need not be identical. Equal values may be shown once.
# Test system: 889142-216-R-J1-PDC complex spheroid viability
# Test: Anticancer human tumor 889142-216-R-J1-PDC patient-derived bladder carcinoma cell line growth inhibition [POLQ]
# Conditions: for viability, T/C: stronger effect = lower value
# Procedure: Multicellular complex tumor spheroid response to Polymerase (POL) inhibitors (novobiocin, ART-558, RP6685) in combination with a variety of drugs and investigational agents in selected tumor cell lines
# The POL inhibitors (novobiocin, ART-558, and RP6685) were evaluated both individually and in combination with standard of care and investigational anticancer small molecules within a complex spheroid model of solid tumors. . Complex spheroids include a stromal component modeled by human endothelial cells (HUVEC) and fibroblasts modeled by human mesenchymal stem cells (MSCs). The concentration ranges selected for each drug and investigational agent were based upon clinically achievable concentrations if the clinical Cmax of the agent was known.
# Compounds. The drugs and investigational agents: novobiocin (NSC847541), ART-558 (NSC835418), RP-6685 (NSC848927), peposertib (NSC802822), ceralasertib (NSC780249), elimusertib (NSC800525), camonsertib (NSC841442), AZD-1390 (NSC803789), olaparib (NSC753686), talazoparib (NSC767125), rucaparib (NSC756644), sotorasib (NSC818433), MRTX-1133 (NSC836407), SN-38 (NSC673596), topotecan (NSC609699), epotoside (NSC141540), doxorubicin (NSC123127), gemcitabine (NSC613327), 5-fluorouracil (NSC19893), paclitaxel (NSC125973), vemurafenib (NSC761431), MSA-2 (NSC828583), SN-011 (NSC837082), adavosertib (NSC754352), prexasertib (NSC758257), carboplatin (NSC241240) and oxaliplatin (NSC266046), were obtained from the National Cancer Institute (NCI) Developmental Therapeutics Program Chemical Repository (21). The FDA-approved anticancer drug set is available from the Developmental Therapeutics Program at https://dtp.cancer.gov/organization/dscb/obtaining/. […] The stock solutions were prepared in dimethyl sulfoxide (DMSO, Sigma-Aldrich, St. Louis, MO, cat. D2650), except for the platinum compounds which were prepared in saline (Quality Biological, Gaithersburg, MD, cat. 114-055-101), at 800-fold the tested concentration and stored at -70 degrees C prior to their use. All drugs and investigational agents were tested over a range starting from a high concentration at or near the clinical Cmax and decreasing in half-log increments. If the clinical Cmax for an agent had not been determined, the highest concentration tested was 10 microM, except for SN-38, which was tested at a high concentration of 1 microM.
# Cell Culture. All cells were maintained in an incubator at 37 degrees C and 5% CO2 with 95% humidity. The PDC lines were cultured according to standard operating procedures established by the NCI PDMR (https://pdmr.cancer.gov). Table 3 of the manuscript, lists the cell lines along with the number of the three cell types plated to form the mct-spheroids and media for tumor cell growth. After thawing, all PDC lines, except 997537-175-T-J1-PDC and 415267-285-R-J2-PDC, were cultured in Matrigel-coated flasks prepared with a working solution of 1X Ham's F-12 nutrient mix, without supplementation (Thermo Fisher Scientific, cat. 11765054), 100 U/mL penicillin-streptomycin (Thermo Fisher Scientific, cat. 15140122), and 2.5% Matrigel (Corning Inc., Corning, NY, cat. 354248) for the first three passages. The two PDC lines 997537-175-T-J1-PDC and 415267-285-R-J2-PDC were cultured on uncoated flasks. The 857933-349-R-J2-PDC line was cultured in 6C/Colon 1B media containing advanced DMEM/F-12 (Thermo Fisher Scientific, cat. 12634028), 10 mM HEPES (Thermo Fisher Scientific, cat. 15630080), 1X GlutaMAX supplement (Thermo Fisher Scientific, cat. 35050061), 0.1 mg/mL primocin (InvivoGen, San Diego, CA, cat. ant-pm-2), 10% defined fetal bovine serum, heat inactivated (HyClone Laboratories Inc., Logan, UT, cat. SH30070.03HI), 50% L-WRN conditioned media (ATCC, cat. CRL-3276), 1.25 mM N-Acetyl-L-cysteine (Sigma-Aldrich, cat. A9165), 10 mM nicotinamide (Sigma-Aldrich, cat. N0636), 1X B-27 supplement (Thermo Fisher Scientific, cat. 17504044), 1X N-2 supplement (Thermo Fisher Scientific, cat. […]
# 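Note: spheroids exposed to compounds for seven days.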
# 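Throughout, for viability, T/C: 100% = DMSO vehicle control viability.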
structure (smiles),measurement,setting,value
CC1COCCN1c1cc(C2(S(C)(=N)=O)CC2)nc(-c2ccnc3[nH]ccc23)n1 (centres undefined),"viability, T/C",compound 0.0316 µM,125% and 90% and 99.5%
same,"viability, T/C",compound 0.1 µM,92.6% and 98.3% and 102%
same,"viability, T/C",compound 0.316 µM,98.3% and 75.8% and 74.6%
same,"viability, T/C",compound 1 µM,53.5% and 71.3% and 53.6%
same,"viability, T/C",compound 3.16 µM,51.8% and 48.8% and 44.5%
same,"viability, T/C",compound 10 µM,45.6% and 58% and 46.8%
same,IC50,curve of compound,3.75 µM and > 10 µM and 1.28 µM
CC1COCCN1c1cc(-c2ccnn2C)c2ccnc(-c3ccn[nH]3)c2n1 (centres undefined) + Cc1cccc(N(C)C(=O)C2C(O)CCN2c2nc(C)cc(C(F)(F)F)c2C#N)c1,IC50,"curve of first compound, second compound 0.0316 µM",0.215 µM
same,IC50,"curve of first compound, second compound 0.1 µM",0.144 µM
same,IC50,"curve of first compound, second compound 0.316 µM",0.162 µM
same,IC50,"curve of first compound, second compound 1 µM",0.264 µM
same,IC50,"curve of first compound, second compound 3.16 µM",0.242 µM
same,IC50,"curve of first compound, second compound 10 µM",0.154 µM
same,"viability, T/C","second compound 0.0316 µM, first compound 0.0316 µM",84.3%
same,"viability, T/C","second compound 0.0316 µM, first compound 0.1 µM",52.8%
same,"viability, T/C","second compound 0.0316 µM, first compound 0.316 µM",50.3%
same,"viability, T/C","second compound 0.0316 µM, first compound 1 µM",37.8%
same,"viability, T/C","second compound 0.0316 µM, first compound 3.16 µM",31.6%
same,"viability, T/C","second compound 0.0316 µM, first compound 10 µM",25.9%
same,"viability, T/C","second compound 0.1 µM, first compound 0.0316 µM",67.9%
same,"viability, T/C","second compound 0.1 µM, first compound 0.1 µM",55%
same,"viability, T/C","second compound 0.1 µM, first compound 0.316 µM",40.4%
same,"viability, T/C","second compound 0.1 µM, first compound 1 µM",34.7%
same,"viability, T/C","second compound 0.1 µM, first compound 3.16 µM",32.2%
same,"viability, T/C","second compound 0.1 µM, first compound 10 µM",25.8%
same,"viability, T/C","second compound 0.316 µM, first compound 0.0316 µM",79.9%
same,"viability, T/C","second compound 0.316 µM, first compound 0.1 µM",54%
same,"viability, T/C","second compound 0.316 µM, first compound 0.316 µM",43.4%
same,"viability, T/C","second compound 0.316 µM, first compound 1 µM",33.9%
same,"viability, T/C","second compound 0.316 µM, first compound 3.16 µM",29.4%
same,"viability, T/C","second compound 0.316 µM, first compound 10 µM",25.8%
same,"viability, T/C","second compound 1 µM, first compound 0.0316 µM",74.3%
same,"viability, T/C","second compound 1 µM, first compound 0.1 µM",59.2%
same,"viability, T/C","second compound 1 µM, first compound 0.316 µM",45.9%
same,"viability, T/C","second compound 1 µM, first compound 1 µM",41.7%
same,"viability, T/C","second compound 1 µM, first compound 3.16 µM",32.3%
same,"viability, T/C","second compound 1 µM, first compound 10 µM",26.9%
same,"viability, T/C","second compound 3.16 µM, first compound 0.0316 µM",76.3%
same,"viability, T/C","second compound 3.16 µM, first compound 0.1 µM",56.4%
same,"viability, T/C","second compound 3.16 µM, first compound 0.316 µM",42.5%
same,"viability, T/C","second compound 3.16 µM, first compound 1 µM",48.9%
same,"viability, T/C","second compound 3.16 µM, first compound 3.16 µM",32.2%
same,"viability, T/C","second compound 3.16 µM, first compound 10 µM",27.9%
same,"viability, T/C","second compound 10 µM, first compound 0.0316 µM",57.4%
same,"viability, T/C","second compound 10 µM, first compound 0.1 µM",56.5%
same,"viability, T/C","second compound 10 µM, first compound 0.316 µM",40.8%
same,"viability, T/C","second compound 10 µM, first compound 1 µM",34.7%
same,"viability, T/C","second compound 10 µM, first compound 3.16 µM",30.6%
same,"viability, T/C","second compound 10 µM, first compound 10 µM",26.9%
